We go through 65 compounds from ChEMBL document CHEMBL3507680, “University of Dundee, Gates Library screen for HepG2 cell viability”.

The data set can be described thus: Human HepG2 cell viability assay in 384 well format. Type of data set: toxicity, cell-based. Details: dose 125 nL, time 70.5 hour; concentration not given beside the values. Conditions: HepG2 cells, read-out: Inhibition.
Consider `CN(C)C1COC2(CCN(C(=O)c3cccnc3)CC2)C1` (stereo not given), for which the cytotoxicity at 70.5 h is -6.03%.

With `CN1C(=O)CC[C@@H]2[C@H]1CCN2S(=O)(=O)c1cccs1`, the cytotoxicity at 70.5 h is -1.06%.

Consider `CC(C)NC(=O)N1CCC2(CC1)NC(=O)[C@H]1CN(C(=O)N(C)C)C[C@H]12`, for which the cytotoxicity at 70.5 h is -3.94%.

With `CCS(=O)(=O)N1CCC2(CC1)CN(C(=O)N(C)C)Cc1ccccc12`, the cytotoxicity at 70.5 h is -2.71%.

Regarding `C[C@H]1C[C@H]2CN(C(=O)C3=CCCCC3)CC[C@H]2O1`, the cytotoxicity at 70.5 h is -2.58%.

Take `O=C(C1CCCC1)N1C[C@@H]2CCNC[C@@H]21`: the cytotoxicity at 70.5 h was -9.43%.

Consider `CCN1C(=O)C(c2ccccc2)CC12CCN(c1ncccn1)CC2` (stereo not given), for which the cytotoxicity at 70.5 h was -18.6%.

Consider `O=C(c1ccsc1)N1C[C@@H]2CCN(C(=O)c3cccc(F)c3)[C@@H]2C1`, for which the cytotoxicity at 70.5 h was -11.5%.

As to `O=C(NC1CCCC1)c1n[nH]c2c1CNCC2`, the cytotoxicity at 70.5 h is -12.1%.

Regarding `O=C(NC1CCC1)c1n[nH]c2c1CNCC2`, the cytotoxicity at 70.5 h was -8.89%.

For `CC(C)CC(=O)N1CCC2(CC1)NC(=O)[C@H]1CN(C(=O)N(C)C)C[C@H]12`, the cytotoxicity at 70.5 h is -7.99%.

For the compound `CC(=O)N1CCc2[nH]nc(C(=O)N3CCOCC3)c2C1`, the cytotoxicity at 70.5 h is -4.57%.

`O=C(Nc1cccnc1)c1noc2c1CN(S(=O)(=O)C1CC1)CC2`: the cytotoxicity at 70.5 h was -12.1%.

Turning to `O=C(c1ccco1)N1C[C@H]2CCCN(C(=O)c3ccsc3)[C@H]2C1`, the cytotoxicity at 70.5 h is -16.2%.

As for `COCC(=O)N1CCC2(CC1)NC(=O)[C@H]1CN(C(=O)N(C)C)C[C@H]12`, the cytotoxicity at 70.5 h is -7.64%.

As for `Cc1ccc(CN2C[C@H]3CN(CC4CCN(C)CC4)C(=O)[C@H]3C2)s1`, the cytotoxicity at 70.5 h was -12.7%.

For `O=C(C1CCCC1)N1C[C@H]2CNC[C@H]2C1`, the cytotoxicity at 70.5 h was -8.49%.

For `O=C(Cc1cccc(F)c1)N1C[C@H]2CN(Cc3cccnc3)C[C@H]2C1`, the cytotoxicity at 70.5 h was -12%.

As to `COc1ccc(CN2Cc3[nH]nc(C(=O)N(C)C)c3C2)cc1`, the cytotoxicity at 70.5 h is -11.8%.

As for `O=C(NCc1ccco1)[C@H]1C[C@H]2OCC[C@H]2N(C(=O)c2ccnnc2)C1`, the cytotoxicity at 70.5 h is -12.6%.

For `O=C(NCC1CC1)C1CN(Cc2cccs2)Cc2ccnn2C1` (stereo not given), the cytotoxicity at 70.5 h is -13.4%.

Take `O=C(c1ccco1)N1CCOCC2(C1)CN(c1ccoc1)C(=O)CO2` (stereo not given): the cytotoxicity at 70.5 h was -10%.

On to `O=C(NC1CC1)N1CCOCC2(C1)CN(c1ccccc1)C(=O)CO2` (stereo not given), for which the cytotoxicity at 70.5 h was -9.6%.

Regarding `CC(C)CNC(=O)c1cc2c(s1)CCN2S(C)(=O)=O`, the cytotoxicity at 70.5 h is -10.9%.

As to `CCOCC1CN(C(=O)N2CCCC2)Cc2cnn(C)c21` (stereo not given), the cytotoxicity at 70.5 h is -6.47%.

With `CS(=O)(=O)N1CCc2sc(C(=O)NCc3ccncc3)cc21`, the cytotoxicity at 70.5 h is -7.65%.

For `Cc1occc1C(=O)N1C[C@@H](C(=O)NCc2ccco2)C[C@H]2OCC[C@H]21`, the cytotoxicity at 70.5 h is -10.4%.

In the case of `CCOCC1CN(C(=O)C2=CCCC2)Cc2cnn(C)c21` (stereo not given), the cytotoxicity at 70.5 h was -14.7%.

With `CN1CCN(C(=O)[C@@H]2C[C@@H]3CCN(c4cccc(F)c4)C[C@H]3O2)CC1`, the cytotoxicity at 70.5 h is -11.9%.

On to `CCOCC1CN(C(=O)c2cccc(C)n2)Cc2cnn(C)c21` (stereo not given), for which the cytotoxicity at 70.5 h is -11.5%.

Turning to `Cc1ccc(C(=O)N2CCO[C@H]3[C@H](OCCN(C)C)CC[C@@H]32)cn1`, the cytotoxicity at 70.5 h was -1.99%.

As to `CN1CCN(C[C@@H]2OC[C@H]3CN(Cc4ccncc4)CC[C@H]32)CC1`, the cytotoxicity at 70.5 h stood at 0.409%.

In the case of `CC(C)N1CCC2(CCCNC2)C1=O` (stereo not given), the cytotoxicity at 70.5 h is -14.6%.

As for `CC(C)CN1C[C@@H]2C(=O)N(C)C3(CCN(C(=O)C(C)C)CC3)[C@@H]2C1`, the cytotoxicity at 70.5 h is -6.33%.

Turning to `CCN1CCN(C)C(=O)C12CCN(Cc1ccsc1)CC2`, the cytotoxicity at 70.5 h is -13%.

Take `COCc1nn(C)c2c1CN(Cc1cnn(C)c1)CC2`: the cytotoxicity at 70.5 h is -11.4%.

With `O=S(=O)(c1cccs1)N1CC[C@H]2[C@H]1CCN2CC1CC1`, the cytotoxicity at 70.5 h was -9.72%.

Turning to `Cc1cccc(C(=O)N2C[C@@H]3[C@H](CC(=O)NC(C)C)[C@@H]3C2)n1`, the cytotoxicity at 70.5 h is -9.84%.

In the case of `Cc1ccccc1CN1CCC2(CC1)CN(S(=O)(=O)c1ccccc1)C2`, the cytotoxicity at 70.5 h was -6.98%.

Consider `O=C(c1ccccc1)N1CCOC2(CCN(Cc3cccs3)CC2)C1`, for which the cytotoxicity at 70.5 h worked out at 12.2%.

Take `CC(=O)N1CCC12CCN(Cc1ccco1)CC2`: the cytotoxicity at 70.5 h came to 19.9%.

Regarding `COCCN1CCC2(CC1)CN(C(=O)c1ccco1)CCO2`, the cytotoxicity at 70.5 h was 12.3%.

In the case of `O=C(c1ccncc1F)N1CC2CC1(C(=O)N1CCCC1)C2`, the cytotoxicity at 70.5 h is -11.2%.

As to `COCC(=O)N1CCOCC2(CCN(Cc3cccs3)C2)C1` (stereo not given), the cytotoxicity at 70.5 h was -10.6%.

With `CC(C)CCN1C2(CCN(C(=O)CN(C)C)C2)c2ccccc2S1(=O)=O` (stereo not given), the cytotoxicity at 70.5 h was -5.18%.

`O=C(c1cccs1)N1CCOCC2(C1)CN(c1cccnc1)C(=O)CO2` (stereo not given): the cytotoxicity at 70.5 h was -16.5%.

For `CN(C)S(=O)(=O)N1C[C@@H]2COC[C@]2(COc2ccccn2)C1`, the cytotoxicity at 70.5 h was -17.2%.

Take `O=C([C@H]1C[C@@H]2CCN(c3cccc(F)c3)C[C@H]2O1)N1CCCC1`: the cytotoxicity at 70.5 h is -14.2%.

For `O=C([C@@H]1C[C@@H]2CCN(c3cccc(F)c3)C[C@H]2O1)N1CCCC1`, the cytotoxicity at 70.5 h was 27.2%.

`CC[C@@H]1N(Cc2ccc(C)o2)CCC[C@]12CCC(=O)N2CCOC`: the cytotoxicity at 70.5 h was found to be 16.8%.

In the case of `CC[C@@H]1N(Cc2ccoc2)CCC[C@]12CCC(=O)N2CCOC`, the cytotoxicity at 70.5 h was -5.78%.

Regarding `CN1CCC2(CC1)CN(CC1CC1)CC21CCNC1=O` (stereo not given), the cytotoxicity at 70.5 h is -6.91%.

Regarding `Cc1cccc(C(=O)N2C[C@@H]3[C@H](CC(=O)Nc4cccnc4)[C@@H]3C2)n1`, the cytotoxicity at 70.5 h was -14.3%.

For the compound `Cn1cc(CN2CC[C@@H]3[C@@H]2CCN3Cc2ccc3c(c2)OCO3)cn1`, the cytotoxicity at 70.5 h is -3%.

Take `c1cnc(N2CC3(CCN(Cc4cccnc4)C3)C2)nc1`: the cytotoxicity at 70.5 h worked out at 9.91%.

Turning to `CN(C)C[C@H]1C[C@@H]2CN(Cc3ccco3)C[C@@H]2O1`, the cytotoxicity at 70.5 h is -16.1%.

Regarding `O=C1[C@H]2CN(Cc3cccs3)C[C@H]2CN1CCN1CCCC1`, the cytotoxicity at 70.5 h was 12%.

Consider `CN(C)CCN1C(=O)CCC12CCN(Cc1cccs1)CC2`, for which the cytotoxicity at 70.5 h was -11.7%.

In the case of `CC(C)N(C)C[C@H]1C[C@@H]2CN(Cc3ccco3)C[C@@H]2O1`, the cytotoxicity at 70.5 h was -1.96%.

Take `CC(C)Nc1nc(N2CCCC2)nc2c1CCN(S(C)(=O)=O)CC2`: the cytotoxicity at 70.5 h is -10.7%.

In the case of `CN(C)CCOCc1nnc2n1CCN(CC1CC1)CC2`, the cytotoxicity at 70.5 h stood at 25.8%.

For the compound `CCN(CC)Cc1cn2c(n1)CN(C1CCOC1)CC2` (stereo not given), the cytotoxicity at 70.5 h is -4.42%.

In the case of `c1cncc(CN2CC[C@@H]3[C@@H]2CCN3Cc2ccc3c(c2)OCO3)c1`, the cytotoxicity at 70.5 h came to 0.903%.

For the compound `c1ccc(N2CC3(CCN(Cc4cccnc4)C3)C2)nc1`, the cytotoxicity at 70.5 h is -7.68%.

Consider `Cc1cccc(CN2Cc3ncn(C)c3C(COCC(=O)N(C)C)C2)n1` (stereo not given), for which the cytotoxicity at 70.5 h is -3.93%.
